Measurements from patent US20120231482A1, “METHOD, KIT OR DIAGNOSTIC FOR THE DETECTION OF REAGENTS WHICH INDUCE ALTERED CONTRACTILITY” (THE JOHNS HOPKINS UNIVERSITY, priority 2009, published 2012).

Legend:
rat cardiac muscle = assay: Force and [Ca2+]i measurements in cardiac trabeculae; assay type: cell-based; conditions: control compounds (NCA hydrolysis products, non-HNO-releasing analogue); data not shown
Procedure: Force and [Ca^2+]i Measurements in Cardiac Trabeculae.
Rat hearts were exposed via midsternotomy after the animals were anesthetized with intraperitoneal injection of pentobarbital (100 mg/kg), and were then rapidly excised and aorta cannulated. The hearts were perfused retrogradely (˜15 ml/min) with high K^+ Krebs-Henseleit (H-K) solution equilibrated with 95% O2 and 5% CO2. Trabeculae were quickly dissected from the right ventricles of the hearts and mounted between a force transducer and a motor arm. The muscles were superfused with K-H solution at a rate of ˜10 ml/min and stimulated at 0.5 Hz. Force was measured using a force transducer system (SI, Germany) and expressed in mN/mm^2. Sarcomere length was measured by laser diffraction. Fura-2 potassium salt was microinjected iontophoretically into one cell and allowed to spread throughout the whole muscle (via gap junctions). The epifluorescence of fura-2 was measured by exciting at 380 and 340 nm. The fluorescent light was collected at 510 nm by a photomultiplier tube (R1527, Hamamatsu). [Ca^2+]i was given by (after subtraction of the autofluorescence): [Ca^2+]i=K′d(R-Rmin)/(Rmax-R), where R is the observed ratio of fluorescence (340/380), K′d is the apparent dissociation constant, Rmax is the ratio of 340 nm/380 nm at saturating [Ca^2+], and Rmin is the ratio of 340 nm/380 nm at zero [Ca^2+]. The values of K′d, Rmax, and Rmin were determined by in vivo calibrations. Tetanization of the trabecula was achieved by addition of ryanodine (1.0 μmol/L) and by increasing the stimulus rate to 10 Hz briefly (˜3 sec) to obtain steady-state force-[Ca^2+] relations. Different levels of tetanized force will be obtained by increasing [Ca^2+] in the perfusate (up to 20-25 mmol/L). The data will be fitted with the Hill equation: F=Fmax[Ca^2+]in/(K1/2n+[Ca^2+]in), where Fmax is the maximal force. K1/2 is [Ca^2+]i at half Fmax, and n is the Hill coefficient.
1-nitrosocyclohexylacetate (NCA) is a new and mechanistically unique HNO donor that has been recently synthesized.

skinned trabeculae = assay: Force-[Ca2+] relation in skinned trabeculae; assay type: cell-based, rat; conditions: skinned muscles; DTT (5 mM) for 10 min after NCA
Procedure: FIG. 2. […] (A) Steady-state force-[Ca^2+]i relationship in intact trabeculae before and after NCA (20 μmol/L). n=5. See text for details. (B) Force-[Ca^2+] relation in skinned trabeculae before and after NCA (n=6). […] The muscles were treated with DTT (5 mM) for 10 min after 1st force-[Ca^2+] was obtained in the presence of NCA alone, and a second force-[Ca^2+] relation was obtained in the presence of NCA+DTT. n=3. (D) For comparison, steady-state force-[Ca^2+]i relationship in intact trabeculae before and after AS (500 μmol/L). n=5.
To further test this hypothesis, steady-state force-[Ca^2+]i relations were obtained by tetanizing the muscles in the presence of ryanodine.

Row | SMILES | effects in cardiac muscles (rat cardiac muscle) | increases in myofilament Ca2+ sensitivity caused by HNO (skinned trabeculae)
1 | CC(C)(C)C(=O)OC1(N=O)CCCCC1 [1-nitrosocyclohexyl pivalate] | had no effects | –
2 | O[C@@H](CS)[C@@H](O)CS [DTT] | – | completely abolished
3 | O=C1CCCCC1 [cyclohexanone] | did not produce any appreciable effects | –
